Holding throughout (type): cell-based
The subject of one data set is HIV-1 strain NL4-3. Briefly: Anti-HIV-1 luciferase indicator assay in MT2 cells, NL4-3. The settings on record: viral strain NL4-3; for IC50: Human immunodeficiency virus 1, NL43, MT2, MT2 cells; for TI / Safety Index (CC50/IC50): MT2 cells. As for the experimental part:
(§1) Compound was dissolved in DMSO to make 30 mM stock. Then the 30 mM stock is further diluted to 4 mM using DMSO. The 4 mM stock was used as the top concentration to carry out an 11-point, 3-fold dilution scheme using DMSO in a 96-well plate to make the compound dose plate. Compounds in the dose plate were transferred to a new 96-well plate (working plate) containing PBS with 0.05% pluronic acid. From this working plate, the compound solution was transferred to the 384-well assay plates.
(§2) Control compounds used in compound control wells were prepared and added to assay plates individually.
(§3) MT2 cells were mixed with HIV-1 strain NL4-3 (or IIIB, or CNHN24) and the cell/virus mixture was added to the aforementioned antivirus assay plates. After incubation in a 37° C., 5% CO2 incubator, the supernatant from the assay plate was transferred to a new 384-well plate containing the indicator cells with a fire fly luciferase gene under HIV-1 LTR control. The expression level of luciferase was related to HIV-1 infectivity and was measured by Bright-Glo kit (Promega).
(§4) Therapeutic index (TI) was determined by taking ratio of CC50/IC50

For a further data set, the system named is HIV-1 strain IIIB. Kind of data set: Anti-HIV-1 luciferase indicator assay in MT2 cells, IIIB. To be noted: viral strain II B; for IC50: Human immunodeficiency virus 1, IIIB, MT2, MT2 cells, read-out: IC50; for TI / Safety Index (CC50/IC50): MT2 cells. Here is the method:
as §1, §2, §3, §4

A further data set has as its system HIV-1 strain CNHN24. Kind of data set: Anti-HIV-1 luciferase indicator assay in MT2 cells, CNHN24. The settings on record: viral strain CNHN24; for IC50: Human immunodeficiency virus 1, MT2, MT2 cells, read-out: IC50; for TI / Safety Index (CC50/IC50): MT2 cells. As for the experimental part:
as §1, §2, §3, §4

The nature of the next data set: in vitro. To be noted: human, CC50. Here is the method: as §1
For cytotoxicity assay the same amount of MT2 cells as in antivirus assay but without HIV-1 virus were added to the cytotoxicity plates. The cytotoxicity was measured by Cell Titer-Glo cell viability assay (Promega).

The structures appear in SMILES notation. Like-named read-outs stand apart in the source and are kept apart here.

One may read the IC50 as the concentration that gives 50% inhibition. The CC50 is the concentration that lowers cell viability or growth by half.

As for `C=C(C)[C@@H]1CC[C@]2(C(=O)N3CCN(CC)CC3)CC[C@]3(C)[C@H](CC[C@@H]4[C@@]5(C)CC[C@H](OC(=O)C6CC(C(=O)O)C6(C)C)C(C)(C)[C@@H]5CC[C@]43C)[C@@H]12` (stereo partly drawn) [Example 54, 3-(((1R,3aS,5aR,5bR,7aR,9S,11aR,11bR,13aR,13bR)-3a-(4-ethylpiperazine-1-carbonyl)-5a,5b,8,8,11a-pentamethyl-1-(prop-1-en-2-yl)icosahydro-1H-cyclopenta[a]chrysen-9-yloxy)carbonyl)-2,2-dimethylcyclobutanecarboxylic acid], the results for the IC50 in the data set on HIV-1 strain NL4-3 (read-out: IC50), with HIV-1 strain IIIB and in the data set with HIV-1 strain CNHN24 were 13 nM, 5 nM and 24 nM, respectively. In addition, the “TI / Safety Index (CC50/IC50)” value is recorded as 1538 in the data set with HIV-1 strain NL4-3, 4000 with HIV-1 strain IIIB and 833 in the data set on HIV-1 strain CNHN24. For the same compound, the CC50 in the data set “in vitro” was greater than 20000 nM.

As to `C=C(C)[C@@H]1CC[C@]2(C(=O)N3CCC(CC)(C(=O)OCC)CC3)CC[C@]3(C)[C@H](CC[C@@H]4[C@@]5(C)CC[C@H](OC(=O)CC(C)(C)C(=O)O)C(C)(C)[C@@H]5CC[C@]43C)[C@@H]12` [Example 74, 4-((1R,3aS,5aR,5bR,7aR,9S,11aR,11bR,13aR,13bR)-3a-(4-(ethoxycarbonyl)-4-ethylpiperidine-1-carbonyl)-5a,5b,8,8,11a-pentamethyl-1-(prop-1-en-2-yl)icosahydro-1H-cyclopenta[a]chrysen-9-yloxy)-2,2-dimethyl-4-oxobutanoic acid], the results for the IC50 in the data set with HIV-1 strain NL4-3 (read-out: IC50), with HIV-1 strain IIIB and with HIV-1 strain CNHN24 were 165 nM, 86 nM and 163 nM, respectively. Also, the “TI / Safety Index (CC50/IC50)” value in the data set with HIV-1 strain NL4-3 is on record as 47; in the data set with HIV-1 strain IIIB, 90; in the data set with HIV-1 strain CNHN24 it was 47. This compound also registered a 50% cytotoxic concentration (CC50) in the data set “in vitro” of 7760 nM.

On to `C=C(C)[C@@H]1CC[C@]2(C(=O)N[C@H]3C[C@@H](C(=O)N4CCCCC4)C3(C)C)CC[C@]3(C)[C@H](CC[C@@H]4[C@@]5(C)CC[C@H](OC(=O)CC(C)(C)C(=O)O)C(C)(C)[C@@H]5CC[C@]43C)[C@@H]12` [Example 12, 4-((1R,3aS,5aR,5bR,7aR,9S,11aR,11bR,13aR,13bR)-3a-((1S,3R)-2,2-dimethyl-3-(piperidine-1-carbonyl)cyclobutylcarbamoyl)-5a,5b,8,8,11a-pentamethyl-1-(prop-1-en-2-yl)icosahydro-1H-cyclopenta[a]chrysen-9-yloxy)-2,2-dimethyl-4-oxobutanoic acid], for which the half-maximal inhibitory concentration (IC50) was found to be 21 nM in the data set on HIV-1 strain NL4-3, 29 nM with HIV-1 strain IIIB and 17 nM in the data set on HIV-1 strain CNHN24. In addition, the “TI / Safety Index (CC50/IC50)” value in the data set with HIV-1 strain NL4-3 is reported as 316; in the data set with HIV-1 strain IIIB, 227; with HIV-1 strain CNHN24 it was 383. Also, the CC50 in the data set “in vitro” was greater than 20000 nM.

Regarding `C=C(C)[C@@H]1CC[C@]2(C(=O)N[C@@H]3CC[C@H](CN4CCC(Cc5ccccc5)CC4)C3)CC[C@]3(C)[C@H](CC[C@@H]4[C@@]5(C)CC[C@H](OC(=O)CCCC(=O)O)C(C)(C)[C@@H]5CC[C@]43C)[C@@H]12` [Example 33, 5-((1R,3aS,5aR,5bR,7aR,9S,11aR,11bR,13aR,13bR)-3a-((1R,3S)-3-((4-benzylpiperidin-1-yl)methyl)cyclopentylcarbamoyl)-5a,5b,8,8,11a-pentamethyl-1-(prop-1-en-2-yl)icosahydro-1H-cyclopenta[a]chrysen-9-yloxy)-5-oxopentanoic acid], the IC50 in the data set on HIV-1 strain NL4-3 (read-out: IC50), with HIV-1 strain IIIB and in the data set on HIV-1 strain CNHN24 was 6700 nM each time. For the same compound, the “TI / Safety Index (CC50/IC50)” value with HIV-1 strain NL4-3, in the data set on HIV-1 strain IIIB and in the data set with HIV-1 strain CNHN24 was 2.98 in each case. Moreover, the CC50 in the data set “in vitro” is 20000 nM.

As to `C=C(C)[C@@H]1CC[C@]2(C(=O)N3CCC(Cc4ccccc4)(C(=O)OCC)CC3)CC[C@]3(C)[C@H](CC[C@@H]4[C@@]5(C)CC[C@H](OC(=O)CC(C)(C)C(=O)O)C(C)(C)[C@@H]5CC[C@]43C)[C@@H]12` [Example 57, 4-((1R,3aS,5aR,5bR,7aR,9S,11aR,11bR,13aR,13bR)-3a-(4-benzyl-4-(ethoxycarbonyl)piperidine-1-carbonyl)-5a,5b,8,8,11a-pentamethyl-1-(prop-1-en-2-yl)icosahydro-1H-cyclopenta[a]chrysen-9-yloxy)-2,2-dimethyl-4-oxobutanoic acid], the IC50 in the data set on HIV-1 strain NL4-3 (read-out: IC50) worked out at 857 nM; with HIV-1 strain IIIB, 590 nM; in the data set on HIV-1 strain CNHN24, 1070 nM. Further, the “TI / Safety Index (CC50/IC50)” value is reported as 23 with HIV-1 strain NL4-3, 33 in the data set with HIV-1 strain IIIB and 20 in the data set on HIV-1 strain CNHN24. Moreover, the cytotoxic concentration (CC50) in “in vitro” was greater than 20000 nM.

As to `C=C(C)[C@@H]1CC[C@]2(C(=O)N[C@H]3C[C@@H](C(=O)N4CCCCC4)C3(C)C)CC[C@]3(C)[C@H](CC[C@@H]4[C@@]5(C)CC[C@H](O)C(C)(C)[C@@H]5CC[C@]43C)[C@@H]12` [Example 11, (1R,3aS,5aR,5bR,7aR,9S,11aR,11bR,13aR,13bR)-N-((1S,3R)-2,2-dimethyl-3-(piperidine-1-carbonyl)cyclobutyl)-9-hydroxy-5a,5b,8,8,11a-pentamethyl-1-(prop-1-en-2-yl)icosahydro-1H-cyclopenta[a]chrysene-3a-carboxamide], the IC50 with HIV-1 strain NL4-3 (read-out: IC50) worked out at 4250 nM; with HIV-1 strain IIIB it was 5670 nM; in the data set with HIV-1 strain CNHN24, 5880 nM. Besides, the “TI / Safety Index (CC50/IC50)” value was 4.7 in the data set on HIV-1 strain NL4-3, 3.5 in the data set with HIV-1 strain IIIB and 3.4 with HIV-1 strain CNHN24. The same compound yielded a 50% cytotoxic concentration (CC50) in the data set “in vitro” greater than 20000 nM.

With `C=C(C)[C@@H]1CC[C@]2(C(=O)N[C@@H]3CC[C@H](CN4CCN(CC)CC4)C3)CC[C@]3(C)[C@H](CC[C@@H]4[C@@]5(C)CC[C@H](OC(=O)CC(C)(C)C(=O)O)C(C)(C)[C@@H]5CC[C@]43C)[C@@H]12` [Example 36, 4-((1R,3aS,5aR,5bR,7aR,9S,11aR,11bR,13aR,13bR)-3a-((1R,3S)-3-((4-ethylpiperazin-1-yl)methyl)cyclopentylcarbamoyl)-5a,5b,8,8,11a-pentamethyl-1-(prop-1-en-2-yl)icosahydro-1H-cyclopenta[a]chrysen-9-yloxy)-2,2-dimethyl-4-oxobutanoic acid], the 50% inhibitory concentration (IC50) in the data set with HIV-1 strain NL4-3 (read-out: IC50) stood at 5 nM; with HIV-1 strain IIIB, 4 nM; in the data set with HIV-1 strain CNHN24, 5 nM. The “TI / Safety Index (CC50/IC50)” value in the data set with HIV-1 strain NL4-3 came out at 4000; in the data set on HIV-1 strain IIIB, 5000; with HIV-1 strain CNHN24 it was 4000. The CC50 in “in vitro” is greater than 20000 nM.

In the case of `C=C(C)[C@@H]1CC[C@]2(C(=O)N[C@H]3C[C@@H](C(=O)N4CCOCC4)C3(C)C)CC[C@]3(C)[C@H](CC[C@@H]4[C@@]5(C)CC[C@H](O)C(C)(C)[C@@H]5CC[C@]43C)[C@@H]12` [Example 8, (1R,3aS,5aR,5bR,7aR,9S,11aR,11bR,13aR,13bR)-N-((1S,3R)-2,2-dimethyl-3-(morpholine-4-carbonyl)cyclobutyl)-9-hydroxy-5a,5b,8,8,11a-pentamethyl-1-(prop-1-en-2-yl)icosahydro-1H-cyclopenta[a]chrysene-3a-carboxamide], the 50% inhibitory concentration (IC50) in the data set with HIV-1 strain NL4-3 (read-out: IC50) turned out to be 2200 nM; in the data set with HIV-1 strain IIIB, 3140 nM; in the data set on HIV-1 strain CNHN24, 2830 nM. In addition, the results for the “TI / Safety Index (CC50/IC50)” value with HIV-1 strain NL4-3, with HIV-1 strain IIIB and in the data set with HIV-1 strain CNHN24 were 9, 6 and 7, respectively. Also, the CC50 in the data set “in vitro” turned out to be 20000 nM.

For `C=C(C)[C@@H]1CC[C@]2(C(=O)N[C@H]3C[C@@H](C(=O)N4CCOCC4)C3(C)C)CC[C@]3(C)[C@H](CC[C@@H]4[C@@]5(C)CC[C@H](OC(=O)CC(C)(C)C(=O)O)C(C)(C)[C@@H]5CC[C@]43C)[C@@H]12` [Example 9, 4-((1R,3aS,5aR,5bR,7aR,9S,11aR,11bR,13aR,13bR)-3a-((1S,3R)-2,2-dimethyl-3-(morpholine-4-carbonyl)cyclobutylcarbamoyl)-5a,5b,8,8,11a-pentamethyl-1-(prop-1-en-2-yl)icosahydro-1H-cyclopenta[a]chrysen-9-yloxy)-2,2-dimethyl-4-oxobutanoic acid], the values for the IC50 with HIV-1 strain NL4-3, in the data set with HIV-1 strain IIIB and in the data set on HIV-1 strain CNHN24 were 5 nM, 7 nM and 8 nM, respectively. Besides, the “TI / Safety Index (CC50/IC50)” value in the data set on HIV-1 strain NL4-3 was 3579; in the data set with HIV-1 strain IIIB, 2658; with HIV-1 strain CNHN24, 2429. Also, the CC50 in the data set “in vitro” is greater than 20000 nM.

Source of the values: patent US9067966B2, “Lupeol-type triterpene derivatives as antivirals” (priority 2009, dated 2015).
